The values that follow come from paper PMC12333015, “Profiling the Impact of mGlu7/Elfn1 Protein Interactions on the Pharmacology of mGlu7 Allosteric Modulators” (ACS Chemical Neuroscience, 2025).

In the assay the target is T1, mGlu7/Elfn1 (Rattus norvegicus, UniProt P35400).
T1 construct: expressed in transfected cells; host or cells: HEK293A mGlu7/GIRK cells cocultured with HEK293A polyclonal cells stably expressing Elfn1-Myc (pcDNA3)
Kind of assay: Thallium flux assay, mGlu7/GIRK HEK293 cells cocultured with Elfn1-expressing cells. Particulars: for EC50: L-AP4 pEC50 ± SEM, Elfn1, DMSO vehicle. Format: cell-based, mouse Elfn1. The source says:
We began our evaluation of mGlu7 ligands in the presence and absence of Elfn1 by using a coculture system as previously described , with several modifications (Figure ). Cells expressing rat mGlu7 and coexpressing G protein inwardly rectifying potassium (GIRK) channels 1 and 2 were cocultured with cells expressing either an empty pcDNA3 vector control or a plasmid containing Elfn1 in the pcDNA3 backbone. We then evaluated the activity of the orthosteric agonist L-AP4 and measured effects on maximal response and pEC50. All responses were normalized to the maximal effect of L-AP4 in the presence of the pcDNA3 control plasmid.
2 Assay design and workflow. (Left panel) Cells expressing rat mGlu7/GIRK (pink) were cocultured with pcDNA3 (blue) or Elfn1 (purple). […] (Right panel) The effect on the concentration–response curve in the presence (purple) or absence (blue) of Elfn1 can be seen by a change in efficacy, potency, and/or basal response.
HEK293A polyclonal cells stably expressing either Elfn1 or empty vector were passaged in media (Dulbecco’s modified Eagle medium (DMEM), supplemented with 10% fetal bovine serum (FBS), 20 mM N-(2-hydroxyethyl)-piperazine-N′-ethanesulfonic acid (HEPES), 1 mM Na pyruvate, 2 mM Glutamax, 0.1 mM nonessential amino acids, 1× antibiotic/antimycotic) under G418 (700 μg/mL) selection to maintain expression.
HEK293A cells stably expressing mouse Elfn1 or pcDNA3 were maintained in growth medium containing 90% Dulbecco’s Modified Eagle Media (DMEM), 10% fetal bovine serum (FBS), 100 units/mL penicillin/streptomycin, 20 mM HEPES, 1 mM sodium pyruvate, 2 mM L-glutamine, 1× nonessential amino acids, and 700 μg/mL G418 sulfate. HEK mGlu7/GIRK cells were maintained in a growth medium with 90% DMEM/F12, 10% dialyzed FBS, 100 units/mL penicillin/streptomycin, 20 mM HEPES, 1 mM sodium pyruvate, 2 mM L-glutamine, 1× nonessential amino acids, 700 μg/mL G418 sulfate, and 600 ng/mL puromycin. All cell culture reagents were purchased from Invitrogen (Carlsbad, CA).
Thallium flux assays were performed as previously described. A mixture of HEK293A mGlu7/GIRK cells and pcDNA3 or Elfn1-expressing HEK293A cells (5000/15,000 cells/20 μL/well for agonist and PAM experiments; 7500/15,000 cells/20 μL/well for NAM experiments) was seeded in 384-well, amine-coated assay plates (Greiner Bio-One, Monroe, NC). Cells were incubated overnight in a humidified 5% CO2 cell culture incubator at 37 °C. […] Following a 1 h incubation at room temperature, the dye loading solution was replaced with 20 μL/well assay buffer and the plates were loaded into a Hamamatsu FDSS 7000 (Bridgewater, NJ). Data were acquired at 1 Hz (excitation 470 ± 20 nm, emission 540 ± 30 nm) for 10 s, followed by the addition of 20 μL/well of 10 μM NAM/PAM/DMSO, followed by an additional 4 min of data collection. […] Thallium flux data were analyzed by first dividing each point in each wave by the first point in that wave and then subtracting the average of the vehicle control response. The slopes of these vehicle control-subtracted waves were calculated over ten data points beginning 2 s after thallium stimulus addition and fit to a three-parameter logistic equation in GraphPad Prism (La Jolla, CA). In most cases, the final data were normalized to the response of the mGlu7/pcDNA3 with vehicle and 5 mM L-AP4 unless otherwise noted. Potency (pEC50) and maximum responses (E max) induced by compounds were determined using a four-parameter logistical equation in Prism.

Each structure is given as a SMILES string.

T1 sequence (P35400 35-915): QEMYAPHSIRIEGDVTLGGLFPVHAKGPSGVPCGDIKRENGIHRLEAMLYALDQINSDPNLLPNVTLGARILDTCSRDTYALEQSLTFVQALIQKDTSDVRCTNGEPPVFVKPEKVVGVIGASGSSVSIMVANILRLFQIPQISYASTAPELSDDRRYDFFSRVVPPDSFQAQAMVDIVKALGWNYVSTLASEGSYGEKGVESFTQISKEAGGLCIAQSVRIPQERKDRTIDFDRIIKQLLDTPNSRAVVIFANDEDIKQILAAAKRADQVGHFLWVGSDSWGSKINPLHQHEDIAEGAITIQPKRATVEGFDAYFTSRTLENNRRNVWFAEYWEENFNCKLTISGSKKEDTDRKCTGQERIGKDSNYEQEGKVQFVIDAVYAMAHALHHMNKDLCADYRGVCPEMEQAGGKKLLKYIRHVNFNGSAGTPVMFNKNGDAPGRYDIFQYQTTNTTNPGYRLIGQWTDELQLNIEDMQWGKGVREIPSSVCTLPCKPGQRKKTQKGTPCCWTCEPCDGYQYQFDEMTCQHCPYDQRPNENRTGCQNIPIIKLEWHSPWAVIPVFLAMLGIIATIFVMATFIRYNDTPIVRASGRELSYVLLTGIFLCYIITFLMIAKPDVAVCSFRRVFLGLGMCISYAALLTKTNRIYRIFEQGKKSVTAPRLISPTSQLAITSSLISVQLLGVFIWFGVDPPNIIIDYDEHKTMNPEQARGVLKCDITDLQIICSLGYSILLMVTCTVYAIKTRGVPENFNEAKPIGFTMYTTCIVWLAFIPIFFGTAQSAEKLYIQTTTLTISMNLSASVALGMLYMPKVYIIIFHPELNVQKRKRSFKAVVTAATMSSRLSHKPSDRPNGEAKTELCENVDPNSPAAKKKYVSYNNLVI
T1 sequence (Q8C8T7 26-828 partner): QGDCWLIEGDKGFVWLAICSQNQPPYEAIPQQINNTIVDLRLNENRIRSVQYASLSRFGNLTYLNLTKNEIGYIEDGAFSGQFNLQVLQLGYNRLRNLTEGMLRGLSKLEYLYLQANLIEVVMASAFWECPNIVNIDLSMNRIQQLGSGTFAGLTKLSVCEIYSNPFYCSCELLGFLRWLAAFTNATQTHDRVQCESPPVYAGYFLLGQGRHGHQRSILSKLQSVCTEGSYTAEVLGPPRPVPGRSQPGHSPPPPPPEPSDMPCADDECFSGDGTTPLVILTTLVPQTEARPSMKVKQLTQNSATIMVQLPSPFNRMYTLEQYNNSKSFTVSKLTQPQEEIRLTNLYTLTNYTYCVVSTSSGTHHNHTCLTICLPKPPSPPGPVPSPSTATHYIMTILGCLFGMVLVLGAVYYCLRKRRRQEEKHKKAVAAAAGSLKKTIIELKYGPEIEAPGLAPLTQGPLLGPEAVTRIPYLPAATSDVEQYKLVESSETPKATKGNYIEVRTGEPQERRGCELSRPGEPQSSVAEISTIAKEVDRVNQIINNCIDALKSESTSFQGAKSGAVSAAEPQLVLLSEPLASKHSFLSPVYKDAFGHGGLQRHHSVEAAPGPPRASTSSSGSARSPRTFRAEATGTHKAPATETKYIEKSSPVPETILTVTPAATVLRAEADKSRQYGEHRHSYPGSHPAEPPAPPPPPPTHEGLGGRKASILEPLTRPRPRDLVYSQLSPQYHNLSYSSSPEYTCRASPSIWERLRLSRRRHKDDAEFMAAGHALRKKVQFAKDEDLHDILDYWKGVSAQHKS

For `N[C@@H](CCP(=O)(O)O)C(=O)O` [L-AP4, L-2-amino-4-phosphonobutyric acid, reference compound], the EC50 by setting is: (agonist alone (DMSO row of Table 2)) 324 µM; (agonist alone (DMSO row of Table S1)) 200 µM. Besides, the “maximal response to L-AP4 with Elfn1 versus pcDNA3” value (eight experiments, p < 0.001) is reported as “significantly reduced”. The “pEC50 of L-AP4 with Elfn1 versus pcDNA3” value (eight experiments, p < 0.01) is “significantly reduced”.
